Experimental data as given in patent US8940896B2, “Tetra-cyclic carboline derivatives useful in the inhibition of angiogenesis” (PTC Therapeutics, Inc., priority 2004, dated 2015).

Tested on: VEGF
Test: Hypoxia-inducible endogenous VEGF expression, VEGF ELISA assay
Assay type: cell-based
Conditions: HeLa cells, hypoxic conditions (1% O2, 5% CO2), VEGF in conditioned media
Procedure: The ability of the compounds of the invention to modulate hypoxia-inducible endogenous VEGF expression may be analyzed as follows. VEGF protein levels may be monitored by an ELISA assay (R&D Systems). Briefly, HeLa cells may be cultured for 24-48 hours under hypoxic conditions (1% O2, 5% CO2, balanced with nitrogen) in the presence or absence of a compound of the invention. The conditioned media may then be assayed by ELISA, and the concentration of VEGF calculated from the standard ELISA curve of each assay.
A dose-response analysis may be performed using the ELISA assay and conditions described above. The conditions for the dose-response ELISA are analogous to those described above. A series of, e.g., seven different concentrations may be analyzed. In parallel, a dose-response cytotoxicity assay may be performed using CellTiter Glo (Promega) under the same conditions as the ELISA to ensure that the inhibition of VEGF expression was not due to the cytotoxicity. Dose-response curves may be plotted using percentage inhibition versus concentration of the compound, and EC50 and CC50 values may be generated for each compound with the maximal inhibition set as 100% and the minimal inhibition as 0%.

Structure (SMILES)	EC50 (Homo sapiens, HeLa) [nM]	EC50 [nM]
COc1ccc(C2c3[nH]c4ccccc4c3CC3C(=O)N(c4ccccc4C(C)C)C(=S)N32)cc1 (centres unmarked) [Compound 74]	> 1000	–
COc1ccc(C2c3[nH]c4ccc(Br)cc4c3CC3C(=O)N(C4CCCCC4)C(=S)N32)cc1 (centres unmarked) [Compound 186]	–	< 8
CCOC(=O)CC(C)N1C(=O)C2Cc3c([nH]c4ccc(Br)cc34)C(c3ccc(OC)cc3)N2C1=S (centres unmarked) [Compound 145]	< 8	–
COc1ccc(C2c3[nH]c4ccc(Br)cc4c3CC3C(=O)N(CC4CCCO4)C(=S)N32)cc1 (centres unmarked) [Compound 143]	8 to 40	–
COc1ccc(C2c3[nH]c4ccccc4c3CC3C(=O)N(c4cccc(F)c4)C(=S)N32)cc1 (centres unmarked) [Compound 43]	200 to 1000	–
COc1ccccc1C1c2[nH]c3ccccc3c2CC2C(=O)N(c3ccc(C)cc3)C(=S)N21 (centres unmarked) [Compound 91]	> 1000	–
CC(C)N1C(=O)C2Cc3c([nH]c4ccc(Cl)cc34)C(c3ccc(N4CCN(C)CC4)cc3)N2C1=O (centres unmarked) [Compound 124]	40 to 200	–
COCCOc1ccc([C@@H]2c3[nH]c4ccc(Br)cc4c3C[C@H]3C(=O)N(C4CCCCC4)C(=S)N23)cc1 [Compound 148]	200 to 1000	–
COc1cccc(C2c3[nH]c4ccccc4c3CC3C(=O)N(C4CCCC4)C(=S)N32)c1 (centres unmarked) [Compound 12]	> 1000	–
COCCOc1ccc(C2c3[nH]c4ccc(Cl)cc4c3CC3C(=O)N(C4CCCC4)C(=S)N32)cc1 (centres unmarked) [Compound 109]	8 to 40	–
Cc1ccc2[nH]c3c(c2c1)CC1C(=O)N(C2CCCCC2)C(=O)N1C3c1ccc2c(c1)OCO2 (centres unmarked) [Compound 44]	200 to 1000	–
CN1C(=O)C2Cc3c([nH]c4ccccc34)C(c3cccc(Cl)c3Cl)N2C1=S (centres unmarked) [Compound 75]	> 1000	–
CC(C)N1C(=O)C2Cc3c([nH]c4ccc(Br)cc34)C(c3ccc(-c4ccncc4)cc3)N2C1=S (centres unmarked) [Compound 130]	40 to 200	–
COc1ccc(C2c3[nH]c4ccccc4c3CC3C(=O)N(CCc4ccccc4)C(=S)N32)cc1 (centres unmarked) [Compound 79]	> 1000	–
CC(C)N1C(=O)C2Cc3c([nH]c4ccc(Br)cc34)C(c3ccc(OCCCn4ccnc4)cc3)N2C1=S (centres unmarked) [Compound 160]	8 to 40	–
COc1ccc(C2c3[nH]c4ccccc4c3CC3C(=O)N(c4ccc(C)cc4)C(=S)N32)cc1 (centres unmarked) [Compound 46]	> 1000	–
COc1ccc(C2c3[nH]c4ccc(Br)cc4c3CC3C(=O)N(c4cccc(Cl)c4)C(=S)N32)cc1 (centres unmarked) [Compound 165]	< 8	–
C=CCN1C(=O)C2Cc3c([nH]c4ccccc34)C(c3ccc(O)cc3)N2C1=S (centres unmarked) [Compound 77]	> 1000	–
COc1ccccc1C1c2[nH]c3ccccc3c2CC2C(=O)N(c3cccc(F)c3)C(=S)N21 (centres unmarked) [Compound 92]	> 1000	–
CCCCCN1C(=O)C2Cc3c([nH]c4ccc(Br)cc34)C(c3ccc(C(C)C)cc3)N2C1=S (centres unmarked) [Compound 98]	< 8	–
COC(=O)c1cccc(N2C(=O)C3Cc4c([nH]c5ccccc45)C(c4ccc(OC)cc4)N3C2=S)c1 (centres unmarked) [Compound 51]	> 1000	–

Structure (SMILES)	EC50 (Homo sapiens, HeLa) [nM]	EC50 [nM]
COCCOc1ccc(C2c3[nH]c4ccc(Br)cc4c3CC3C(=O)N(C4CCCCC4)C(=S)N32)cc1 (centres unmarked) [Compound 117]	–	< 8
COc1ccc(C2c3[nH]c4ccc(Br)cc4c3CC3C(=O)N(c4ccc(F)cc4F)C(=S)N32)cc1 (centres unmarked) [Compound 172]	< 8	–
CC(C)N1C(=O)C2Cc3c([nH]c4ccc(Cl)cc34)C(c3ccc(-c4ccncc4)cc3)N2C1=O (centres unmarked) [Compound 125]	200 to 1000	–
CC(C)N1C(=O)C2Cc3c([nH]c4ccc(Br)cc34)C(c3ccc(OCCCN4CCOCC4)cc3)N2C1=S (centres unmarked) [Compound 153]	8 to 40	–
O=C1C2Cc3c([nH]c4ccc(Br)cc34)C(c3ccc(OCCN4CCOCC4)cc3)N2C(=S)N1C1CCCC1 (centres unmarked) [Compound 104]	< 8	–
COCCCN1C(=O)C2Cc3c([nH]c4ccc(Cl)cc34)C(c3ccc(OCCOC)cc3)N2C1=S (centres unmarked) [Compound 110]	8 to 40	–
COc1ccc(C2c3[nH]c4ccc(Br)cc4c3CC3C(=O)N(C(=O)c4ccccc4)C(=S)N32)cc1 (centres unmarked) [Compound 178]	40 to 200	–
COc1ccc(C2c3[nH]c4ccccc4c3CC3C(=O)N(C4CCCCC4)C(=O)N32)cc1 (centres unmarked) [Compound 54]	–	> 1000
COc1ccc(C2c3[nH]c4ccc(Br)cc4c3CC3C(=O)N(c4cccc(Br)c4)C(=S)N32)cc1 (centres unmarked) [Compound 175]	< 8	–
C=CCN1C(=O)C2Cc3c([nH]c4ccccc34)C(c3cccc(Cl)c3)N2C1=S (centres unmarked) [Compound 67]	> 1000	–
O=C1C2Cc3c([nH]c4ccccc34)C(c3ccc(F)cc3)N2C(=S)N1C1CCCCC1 (centres unmarked) [Compound 4]	> 1000	–
O=C1C2Cc3c([nH]c4ccccc34)C(C3CCCCC3)N2C(=S)N1C1CC1 (centres unmarked) [Compound 5]	–	> 1000
CC(C)N1C(=O)C2Cc3c([nH]c4ccc(Cl)cc34)C(c3ccc(-n4ccnc4)cc3)N2C1=S (centres unmarked) [Compound 132]	40 to 200	–
O=C1C2Cc3c([nH]c4ccccc34)C(C3CCCCC3)N2C(=S)N1C1CCCCC1 (centres unmarked) [Compound 1]	–	> 1000
COc1ccccc1C1c2[nH]c3ccccc3c2CC2C(=O)N(C3CCCCC3)C(=S)N21 (centres unmarked) [Compound 87]	> 1000	–
CCN(CC)CCCOc1ccc(C2c3[nH]c4ccc(Br)cc4c3CC3C(=O)N(c4ccc(Cl)cc4)C(=S)N32)cc1 (centres unmarked) [Compound 193]	8 to 40	–
COc1ccccc1C1c2[nH]c3ccccc3c2CC2C(=O)N(C)C(=S)N21 (centres unmarked) [Compound 76]	> 1000	–
COc1ccc(C2c3[nH]c4ccccc4c3CC3C(=O)N(C4CCCCC4)C(=S)N32)cc1 (centres unmarked) [Compound 41]	–	200 to 1000
COc1cccc(C2c3[nH]c4ccccc4c3CC3C(=O)N(C4CCCCC4)C(=S)N32)c1 (racemic) [Compound 2]	> 1000	–
CN1C(=O)C2Cc3c([nH]c4ccc(Br)cc34)C(c3ccc(OCCN4CCOCC4)cc3)N2C1=S (centres unmarked) [Compound 100]	8 to 40	–
COCCOc1ccc(C2c3[nH]c4ccc(Cl)cc4c3CC3C(=O)N(C4CCCCC4)C(=S)N32)cc1 (centres unmarked) [Compound 116]	< 8	–

Structure (SMILES)	EC50 (Homo sapiens, HeLa) [nM]	EC50 [nM]
COc1ccc(C2c3[nH]c4ccc(Br)cc4c3CC3C(=O)N(C4CC4)C(=S)N32)cc1 (centres unmarked) [Compound 17]	< 8	–
COC(=O)c1cccc(N2C(=O)C3Cc4c([nH]c5ccc(Br)cc45)C(c4ccc(OC)cc4)N3C2=S)c1 (centres unmarked) [Compound 140]	< 8	–
CN1C(=O)C2Cc3c([nH]c4ccccc34)C(c3cccc(Cl)c3)N2C1=S (centres unmarked) [Compound 58]	> 1000	–
O=C1C2Cc3c([nH]c4ccc(Cl)cc34)C(c3ccc4c(c3)OCO4)N2C(=O)N1C1CCCCC1 (centres unmarked) [Compound 31]	40 to 200	–
CCOC(=O)CN1C(=O)C2Cc3c([nH]c4ccc(Br)cc34)C(c3ccc(OC)cc3)N2C1=S (centres unmarked) [Compound 137]	8 to 40	–
COCCOc1ccc(C2c3[nH]c4ccc(Br)cc4c3CC3C(=O)N(C4CCCCC4)C(=S)N32)cc1 (centres unmarked) [Compound 111]	< 8	–
COCCOc1ccc(C2c3[nH]c4ccc(Cl)cc4c3CC3C(=O)N(C)C(=S)N32)cc1 (centres unmarked) [Compound 107]	< 8	–
COCCCN1C(=O)C2Cc3c([nH]c4ccccc34)C(c3ccc(OC)cc3)N2C1=S (centres unmarked) [Compound 62]	> 1000	–
O=C1C2Cc3c([nH]c4ccccc34)C(c3ccccc3)N2C(=O)N1C1CCCCC1 (centres unmarked) [Compound 72]	> 1000	–
CC(C)c1ccc(C2c3[nH]c4ccc(Br)cc4c3CC3C(=O)N(C4CCCCC4)C(=S)N32)cc1 (centres unmarked) [Compound 97]	< 8	–
CC(C)N1C(=O)C2Cc3c([nH]c4ccc(Br)cc34)C(c3ccc(OCCCN4CCCC4)cc3)N2C1=S (centres unmarked) [Compound 150]	< 8	–
Cc1ccc(N2C(=O)C3Cc4c([nH]c5ccc(Br)cc45)C(c4ccc(C(C)C)cc4)N3C2=S)cc1 (centres unmarked) [Compound 96]	< 8	–
COC(=O)CN1C(=O)C2Cc3c([nH]c4ccc(Br)cc34)C(c3ccc(OC)cc3)N2C1=S (centres unmarked) [Compound 136]	40 to 200	–
CC(C)N1C(=O)C2Cc3c([nH]c4ccc(Br)cc34)C(c3ccc(-c4cncnc4)cc3)N2C1=O (centres unmarked) [Compound 121]	40 to 200	–
CC(C)N1C(=O)C2Cc3c([nH]c4ccc(Br)cc34)C(c3ccc(OCCCN4CCSCC4)cc3)N2C1=S (centres unmarked) [Compound 157]	40 to 200	–
O=C1C2Cc3c([nH]c4ccc(Br)cc34)C(C3CCCCC3)N2C(=S)N1C1CCCC1 (centres unmarked) [Compound 19]	8 to 40	–
COc1ccc(C2c3[nH]c4ccc(Br)cc4c3CC3C(=O)N(c4ccc([N+](=O)[O-])cc4)C(=S)N32)cc1 (centres unmarked) [Compound 176]	< 8	–
CCN(CC)CCCOc1ccc(C2c3[nH]c4ccc(Br)cc4c3CC3C(=O)N(C(C)C)C(=S)N32)cc1 (centres unmarked) [Compound 154]	< 8	–
CN1C(=O)C2Cc3c([nH]c4ccccc34)C(c3cccc(F)c3)N2C1=S (centres unmarked) [Compound 65]	> 1000	–
CC(C)N1C(=O)C2Cc3c([nH]c4ccc(Br)cc34)C(c3ccc(OCCCN4CCCCC4)cc3)N2C1=S (centres unmarked) [Compound 151]	< 8	–
